We go through 16 compounds from ChEMBL document CHEMBL1157753, “Stereochemical requirements for the mineralocorticoid receptor antagonist activity of dihydropyridines” (J Med Chem, 2010).

Series [1] has as its target T1, Mineralocorticoid receptor (Homo sapiens, UniProt P08235).
T1 sequence (P08235 whole entry): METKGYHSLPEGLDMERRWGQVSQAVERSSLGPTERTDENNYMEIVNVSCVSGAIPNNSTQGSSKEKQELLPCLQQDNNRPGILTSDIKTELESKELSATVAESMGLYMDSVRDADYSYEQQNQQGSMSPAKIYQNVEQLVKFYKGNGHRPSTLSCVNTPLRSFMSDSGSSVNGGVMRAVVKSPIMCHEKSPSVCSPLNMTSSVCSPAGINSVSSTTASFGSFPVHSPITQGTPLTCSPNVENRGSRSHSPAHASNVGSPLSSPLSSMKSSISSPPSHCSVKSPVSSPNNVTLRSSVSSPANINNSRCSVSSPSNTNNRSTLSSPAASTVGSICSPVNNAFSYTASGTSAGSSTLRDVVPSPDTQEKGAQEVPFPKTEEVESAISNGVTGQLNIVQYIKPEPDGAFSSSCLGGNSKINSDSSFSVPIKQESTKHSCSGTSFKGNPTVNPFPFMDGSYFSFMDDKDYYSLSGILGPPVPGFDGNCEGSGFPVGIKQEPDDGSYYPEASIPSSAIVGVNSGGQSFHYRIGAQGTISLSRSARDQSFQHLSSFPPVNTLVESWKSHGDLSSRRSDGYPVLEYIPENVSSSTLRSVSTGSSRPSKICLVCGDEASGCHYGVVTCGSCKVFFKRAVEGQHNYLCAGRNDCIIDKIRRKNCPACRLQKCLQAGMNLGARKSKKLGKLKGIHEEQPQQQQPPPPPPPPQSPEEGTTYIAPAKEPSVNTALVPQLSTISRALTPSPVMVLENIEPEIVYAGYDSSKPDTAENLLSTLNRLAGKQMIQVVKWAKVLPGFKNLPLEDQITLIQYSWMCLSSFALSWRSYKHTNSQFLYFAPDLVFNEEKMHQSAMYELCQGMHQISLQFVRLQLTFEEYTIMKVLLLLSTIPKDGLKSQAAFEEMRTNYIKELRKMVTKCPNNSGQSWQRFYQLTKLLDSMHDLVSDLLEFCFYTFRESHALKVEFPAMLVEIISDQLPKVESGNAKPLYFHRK
Description: Antagonist activity at Gal4-fused mineralocorticoid receptor expressed in human HuH7 cells assessed as inhibition of aldosterone-induced receptor activation by luciferase reporter gene assay

Series [2] deals with Voltage-gated L-type calcium channel (Rattus norvegicus, UniProt P22002+Q02485+P27732). Nature of the series: Inhibition of L-type calcium channel in rat A10 cells assessed as inhibition of depolarization-induced increase in calcium flux after 10 mins by FLIPR assay. For orientation: A change in cytosolic calcium serves as a functional read-out for many receptors and channels.

Series [3] concerns the target T2, Glucocorticoid receptor (Homo sapiens, UniProt P04150).
T2 sequence (P04150 whole entry): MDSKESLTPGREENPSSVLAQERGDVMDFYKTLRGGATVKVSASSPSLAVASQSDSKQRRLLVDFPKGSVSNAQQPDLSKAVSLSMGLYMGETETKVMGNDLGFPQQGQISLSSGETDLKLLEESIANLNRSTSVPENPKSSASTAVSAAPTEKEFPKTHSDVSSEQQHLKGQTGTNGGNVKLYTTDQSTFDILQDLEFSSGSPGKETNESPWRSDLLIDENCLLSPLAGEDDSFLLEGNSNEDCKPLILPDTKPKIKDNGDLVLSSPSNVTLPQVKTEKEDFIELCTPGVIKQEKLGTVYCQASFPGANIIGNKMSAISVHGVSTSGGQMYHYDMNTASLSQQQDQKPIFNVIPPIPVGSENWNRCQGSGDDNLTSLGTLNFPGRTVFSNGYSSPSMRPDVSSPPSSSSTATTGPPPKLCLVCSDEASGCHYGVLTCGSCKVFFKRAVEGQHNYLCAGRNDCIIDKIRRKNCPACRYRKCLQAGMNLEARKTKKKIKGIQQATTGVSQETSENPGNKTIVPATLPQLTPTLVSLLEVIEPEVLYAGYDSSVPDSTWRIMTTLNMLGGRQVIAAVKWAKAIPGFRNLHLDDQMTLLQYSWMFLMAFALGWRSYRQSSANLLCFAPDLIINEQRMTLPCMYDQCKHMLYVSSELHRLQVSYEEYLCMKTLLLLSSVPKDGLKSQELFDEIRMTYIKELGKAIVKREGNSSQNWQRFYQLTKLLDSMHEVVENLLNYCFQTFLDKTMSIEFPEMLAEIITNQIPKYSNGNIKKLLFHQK
Briefly: Inhibition of glucocorticoid receptor.

Series [4] has as its target T3, Androgen receptor (Homo sapiens, UniProt P10275).
T3 sequence (P10275 whole entry): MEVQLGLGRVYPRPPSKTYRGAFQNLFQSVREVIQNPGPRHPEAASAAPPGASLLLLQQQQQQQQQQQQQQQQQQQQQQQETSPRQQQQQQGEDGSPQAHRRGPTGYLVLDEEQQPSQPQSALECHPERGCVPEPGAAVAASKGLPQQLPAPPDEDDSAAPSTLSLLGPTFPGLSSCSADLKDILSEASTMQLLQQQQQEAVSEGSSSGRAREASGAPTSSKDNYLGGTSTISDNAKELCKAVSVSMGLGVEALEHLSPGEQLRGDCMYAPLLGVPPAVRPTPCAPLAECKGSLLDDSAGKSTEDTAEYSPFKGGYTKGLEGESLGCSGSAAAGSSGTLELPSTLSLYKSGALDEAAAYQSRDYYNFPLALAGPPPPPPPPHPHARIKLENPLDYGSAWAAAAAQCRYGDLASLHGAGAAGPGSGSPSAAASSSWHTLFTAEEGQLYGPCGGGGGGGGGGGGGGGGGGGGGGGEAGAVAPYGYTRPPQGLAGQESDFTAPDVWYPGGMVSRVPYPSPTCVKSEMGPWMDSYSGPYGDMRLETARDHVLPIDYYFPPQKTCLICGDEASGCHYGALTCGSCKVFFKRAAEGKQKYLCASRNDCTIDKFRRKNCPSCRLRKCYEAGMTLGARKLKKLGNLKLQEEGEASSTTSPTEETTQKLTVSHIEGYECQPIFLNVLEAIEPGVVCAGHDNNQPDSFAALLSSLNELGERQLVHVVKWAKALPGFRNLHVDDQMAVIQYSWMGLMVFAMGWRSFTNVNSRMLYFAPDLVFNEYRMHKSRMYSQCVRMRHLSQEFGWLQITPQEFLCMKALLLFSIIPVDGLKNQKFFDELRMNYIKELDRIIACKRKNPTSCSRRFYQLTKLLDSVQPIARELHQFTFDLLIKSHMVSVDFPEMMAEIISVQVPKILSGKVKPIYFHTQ
Nature of the series: Inhibition of androgen receptor.

For series [5], the target named is T4, Progesterone receptor (Homo sapiens, UniProt P06401).
T4 sequence (P06401 whole entry): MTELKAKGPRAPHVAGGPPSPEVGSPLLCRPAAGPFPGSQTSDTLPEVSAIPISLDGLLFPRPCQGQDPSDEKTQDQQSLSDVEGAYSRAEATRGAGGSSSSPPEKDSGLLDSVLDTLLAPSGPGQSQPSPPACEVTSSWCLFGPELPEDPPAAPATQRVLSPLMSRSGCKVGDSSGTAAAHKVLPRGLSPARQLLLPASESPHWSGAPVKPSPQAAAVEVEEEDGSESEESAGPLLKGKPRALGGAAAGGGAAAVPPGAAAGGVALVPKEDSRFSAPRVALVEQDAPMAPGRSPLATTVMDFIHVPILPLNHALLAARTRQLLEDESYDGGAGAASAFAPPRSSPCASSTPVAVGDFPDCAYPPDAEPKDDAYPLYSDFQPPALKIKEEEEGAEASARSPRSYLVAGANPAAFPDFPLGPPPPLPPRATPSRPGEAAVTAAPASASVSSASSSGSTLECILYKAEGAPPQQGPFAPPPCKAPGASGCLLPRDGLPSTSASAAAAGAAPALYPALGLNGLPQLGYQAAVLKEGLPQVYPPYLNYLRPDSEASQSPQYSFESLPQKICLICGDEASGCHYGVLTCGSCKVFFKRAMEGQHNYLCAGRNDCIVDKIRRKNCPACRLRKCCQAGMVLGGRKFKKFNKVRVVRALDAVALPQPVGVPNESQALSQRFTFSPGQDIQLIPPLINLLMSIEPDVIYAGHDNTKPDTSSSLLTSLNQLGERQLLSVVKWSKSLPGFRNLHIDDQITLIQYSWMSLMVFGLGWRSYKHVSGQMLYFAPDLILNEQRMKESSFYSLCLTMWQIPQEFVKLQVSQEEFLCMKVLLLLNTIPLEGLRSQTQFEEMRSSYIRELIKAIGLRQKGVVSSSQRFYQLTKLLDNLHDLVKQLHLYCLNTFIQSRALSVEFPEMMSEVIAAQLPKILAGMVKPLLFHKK
Nature of the series: Inhibition of progesterone receptor.

Series [6] deals with T5, Estrogen receptor (Homo sapiens, UniProt P03372).
T5 sequence (P03372 whole entry): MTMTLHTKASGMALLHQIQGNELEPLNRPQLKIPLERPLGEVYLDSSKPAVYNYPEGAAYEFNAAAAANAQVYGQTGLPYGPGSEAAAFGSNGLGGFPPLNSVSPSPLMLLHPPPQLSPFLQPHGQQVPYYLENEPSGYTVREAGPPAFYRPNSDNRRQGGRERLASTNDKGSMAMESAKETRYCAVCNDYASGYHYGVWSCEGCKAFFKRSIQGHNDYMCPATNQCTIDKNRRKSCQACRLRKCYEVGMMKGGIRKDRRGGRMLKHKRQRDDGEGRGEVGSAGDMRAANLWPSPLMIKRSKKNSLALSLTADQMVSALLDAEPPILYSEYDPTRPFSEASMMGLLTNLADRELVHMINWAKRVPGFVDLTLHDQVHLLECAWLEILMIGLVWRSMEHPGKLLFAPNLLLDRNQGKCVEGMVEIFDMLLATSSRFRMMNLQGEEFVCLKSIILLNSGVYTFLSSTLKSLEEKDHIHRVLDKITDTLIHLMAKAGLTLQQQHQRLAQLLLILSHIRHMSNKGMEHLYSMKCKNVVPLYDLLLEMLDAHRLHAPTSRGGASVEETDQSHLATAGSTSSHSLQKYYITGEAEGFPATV
Briefly: Inhibition of estrogen receptor.

The test system of series [7] is Rattus norvegicus. Nature of the series: (§1) Half life in Sprague-Dawley rat at 2 mg/kg, iv by LC/MS/MS analysis. It is filed as ADME, organism-based. Also on record: dose 2 mg/kg, route intravenous. The settings on record: in vivo.
Series [8] in a line: Clearance in Sprague-Dawley rat at 2 mg/kg, iv by LC/MS/MS analysis. The series is classed as ADME, organism-based. Also on record: dose 2 mg/kg, route intravenous. The conditions noted are these: in vivo.
Series [9] in a line: as §1. The conditions noted are these: Sprague-Dawley, in vivo. Also on record: dose 2 mg/kg, route intravenous. It is filed as ADME, organism-based.
A short description of series [10]: Volume of distribution at steady state in Sprague-Dawley rat at 2 mg/kg, iv by LC/MS/MS analysis. It is filed as ADME, organism-based. Also on record: dose 2 mg/kg, route intravenous. The settings on record: in vivo, read-out: Vdss.

A word on the IC50: it is the concentration needed to halve the response being measured. On to `CC1=C(C#N)[C@H](c2ccc(F)cc2Cl)C(C(=O)OC(C)(C)C)=C(C)N1`, for which the IC50 in series [1] is 3520 nM; in [2], 3840 nM.
Regarding `CCCC1=C(C(=O)OCC)C(c2ccnc3ccccc23)C(C#N)=C(C)N1` (racemic), the IC50 in [1] came out at 31 nM; in series [2], 1100 nM.
Turning to `CC1=C(C#N)[C@@H](c2ccc(F)cc2Cl)C(C(=O)OC(C)(C)C)=C(C)N1`, the IC50 in series [3] was 1370 nM; in [4], 246 nM; in series [5], 3520 nM; in [6], greater than 10 µM; in series [1], 3.7 nM. This compound also showed a t1/2 in [7] of 1.14 h.
`COC(=O)C1=C(CCl)NC(C)=C(C#N)[C@@H]1c1ccnc2ccccc12`: the IC50 amounted to 2800 nM in series [1] and 11270 nM in series [2].
For the compound `CCCC1=C(C(=O)OCC)[C@@H](c2ccnc3ccccc23)C(C#N)=C(C)N1`, the figures for the IC50 in series [1] and in series [2] were 3280 nM and 1330 nM, respectively.
Regarding `COC(=O)C1=C(C)NC(C)=C(C(=O)OC(C)(C)C)C1c1cccc([N+](=O)[O-])c1` (racemic) [MEBUDIPINE], the IC50 in [1] was 126 nM; in [2] it was greater than 20 nM.
As to `CC1=C(C#N)C(c2ccc(F)cc2Cl)C(C(=O)OC(C)(C)C)=C(C)N1` (racemic), the IC50 was 59 nM in series [1] and greater than 1550 nM in [2].
Consider `COC(=O)[C@@H]1CC2=CC(=O)CC[C@]2(C)[C@@]23O[C@@H]2C[C@@]2(C)[C@@H](CC[C@@]24CCC(=O)O4)[C@H]13` [EPLERENONE], for which, in series [2], the IC50 is given as greater than 5000 nM.
For the compound `COC(=O)C1=C(C)NC(C)=C(C(=O)OC(C)(C)C)[C@H]1c1cccc([N+](=O)[O-])c1`, the IC50 in series [1] is 536 nM; in [2], greater than 0.5 nM.
Taken in the same sequence, the figures for `COC(=O)C1=C(CCl)NC(C)=C(C#N)[C@H]1c1ccnc2ccccc12` were 340 nM and 7930 nM.
Turning to `COC(=O)C1=C(CCl)NC(C)=C(C#N)[C@H]1c1ccc(F)cc1Cl`, the IC50 in series [1] was found to be 41 nM; in [2], 2070 nM.
In the case of `COC(=O)C1=C(C)NC(C)=C(C#N)[C@@H]1c1ccnc2ccccc12`, the IC50 in series [1] was determined as 469 nM; in [2] it was 14570 nM.
For `COC(=O)C1=C(CCl)NC(C)=C(C#N)[C@@H]1c1ccc(F)cc1Cl`, the IC50 is 2200 nM in series [1] and 570 nM in series [2].
The term clearance denotes the volume of plasma or blood freed of the substance per unit of time. Low values mean inefficient removal, high ones efficient removal. Broadly, the half-life is how long it takes for the measured level to halve. A lower half-life goes with fast loss. `CCCC1=C(C(=O)OCC)[C@H](c2ccnc3ccccc23)C(C#N)=C(C)N1`: the IC50 in series [3] was 270 nM; in [4], 730 nM; in [5] it was 1340 nM; in [6] it was greater than 10 µM; in [1], 10 nM; in [2] it was 2200 nM. Further, the clearance in series [8] worked out at 9.7 mL/min/kg. For the same compound, the half-life in series [9] was 392 min. Moreover, the Vd in series [10] worked out at 0.42 L/kg.
With `COC(=O)C1=C(C)NC(C)=C(C(=O)OC(C)(C)C)[C@@H]1c1cccc([N+](=O)[O-])c1`, the IC50 in series [3] came to 3260 nM; in [4], 1270 nM; in series [5] it was 768 nM; in series [1], 46 nM; in [2] it was 607 nM.
Take `COC(=O)C1=C(C)NC(C)=C(C#N)[C@H]1c1ccnc2ccccc12`: the IC50 amounted to 77 nM in [1] and 7730 nM in series [2].
